ChEMBL document CHEMBL5154721, “Discovery of HDAC6-Selective Inhibitor NN-390 with in Vitro Efficacy in Group 3 Medulloblastoma” (J Med Chem, 2022)
Active and inactive are the calls of the source. The calls are words filed in the database; no cut-off is given here.

Key:
MM1.S = test: Cytotoxicity against human MM1.S cells assessed as inhibition of cell growth incubated for 72 hrs measured by spectrophotometer analysis; assay type: functional, cell-based
Histone deacetylase 11 = target: T1, Histone deacetylase 11 (Homo sapiens, UniProt Q96DB2); test: Inhibition of full length human recombinant HDAC11 expressed in Sf9 baculovirus system using FAM-labeled acetylated peptide as substrate by measuring fluorescence intensity by EMSA method
T1 sequence (Q96DB2 whole entry): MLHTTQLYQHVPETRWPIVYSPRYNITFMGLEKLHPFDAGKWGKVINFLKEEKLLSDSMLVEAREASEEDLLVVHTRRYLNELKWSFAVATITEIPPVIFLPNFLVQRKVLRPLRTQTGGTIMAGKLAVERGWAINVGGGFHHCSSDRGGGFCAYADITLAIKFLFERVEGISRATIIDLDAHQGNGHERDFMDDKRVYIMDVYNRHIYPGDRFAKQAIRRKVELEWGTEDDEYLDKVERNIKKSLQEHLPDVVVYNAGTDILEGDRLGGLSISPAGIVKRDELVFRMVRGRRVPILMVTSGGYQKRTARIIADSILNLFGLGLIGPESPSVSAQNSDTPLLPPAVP

MV4-11 [1] = test: cells; assay type: functional, cell-based; conditions: Homo sapiens, MV4-11, 72 h
in vitro = conditions: human, MRC9 cells
[2] = target: T2, Protein deacetylase HDAC6 (Homo sapiens, UniProt Q9UBN7); test: Inhibition of full length human recombinant HDAC6 expressed in Sf9 baculovirus system using FAM-labeled acetylated peptide as substrate by measuring fluorescence intensity by EMSA method
T2 sequence (Q9UBN7 whole entry): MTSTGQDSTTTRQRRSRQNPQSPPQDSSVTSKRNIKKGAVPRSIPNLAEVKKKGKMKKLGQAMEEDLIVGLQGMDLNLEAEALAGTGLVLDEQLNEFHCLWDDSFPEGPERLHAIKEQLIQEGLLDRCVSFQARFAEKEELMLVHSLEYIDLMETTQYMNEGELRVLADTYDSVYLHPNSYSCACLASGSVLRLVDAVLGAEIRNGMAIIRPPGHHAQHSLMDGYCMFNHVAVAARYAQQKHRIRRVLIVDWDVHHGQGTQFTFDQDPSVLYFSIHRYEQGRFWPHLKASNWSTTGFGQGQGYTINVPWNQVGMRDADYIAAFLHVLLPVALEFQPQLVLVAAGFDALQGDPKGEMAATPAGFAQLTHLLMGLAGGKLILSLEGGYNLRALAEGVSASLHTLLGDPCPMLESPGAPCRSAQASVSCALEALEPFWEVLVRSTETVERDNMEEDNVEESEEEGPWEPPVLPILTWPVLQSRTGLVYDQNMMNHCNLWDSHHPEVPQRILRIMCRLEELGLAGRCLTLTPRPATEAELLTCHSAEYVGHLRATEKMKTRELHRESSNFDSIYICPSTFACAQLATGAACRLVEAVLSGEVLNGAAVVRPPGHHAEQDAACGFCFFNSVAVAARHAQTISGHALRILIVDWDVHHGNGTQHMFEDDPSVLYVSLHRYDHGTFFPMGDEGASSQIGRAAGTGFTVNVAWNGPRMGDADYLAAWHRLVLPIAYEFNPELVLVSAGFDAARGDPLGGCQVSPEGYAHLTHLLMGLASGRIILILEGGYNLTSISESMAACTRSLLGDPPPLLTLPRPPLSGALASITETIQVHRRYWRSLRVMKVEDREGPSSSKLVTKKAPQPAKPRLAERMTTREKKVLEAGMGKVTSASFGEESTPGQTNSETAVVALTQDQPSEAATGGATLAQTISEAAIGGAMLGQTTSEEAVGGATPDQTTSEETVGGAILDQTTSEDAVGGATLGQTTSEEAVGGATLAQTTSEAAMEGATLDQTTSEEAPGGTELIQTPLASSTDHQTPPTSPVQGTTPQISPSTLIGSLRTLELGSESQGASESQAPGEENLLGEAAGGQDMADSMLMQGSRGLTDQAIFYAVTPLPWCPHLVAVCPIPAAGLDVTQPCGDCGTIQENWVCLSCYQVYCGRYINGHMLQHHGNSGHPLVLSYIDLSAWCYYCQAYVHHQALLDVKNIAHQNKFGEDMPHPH

Histone deacetylase 3 = Histone deacetylase 3 (Homo sapiens, UniProt O15379); test: Inhibition of full length human recombinant HDAC3 expressed in Sf9 baculovirus system using FAM-labeled acetylated peptide as substrate by measuring fluorescence intensity by EMSA method
Sequence of Histone deacetylase 3 (O15379 whole entry, the tested form may be a part): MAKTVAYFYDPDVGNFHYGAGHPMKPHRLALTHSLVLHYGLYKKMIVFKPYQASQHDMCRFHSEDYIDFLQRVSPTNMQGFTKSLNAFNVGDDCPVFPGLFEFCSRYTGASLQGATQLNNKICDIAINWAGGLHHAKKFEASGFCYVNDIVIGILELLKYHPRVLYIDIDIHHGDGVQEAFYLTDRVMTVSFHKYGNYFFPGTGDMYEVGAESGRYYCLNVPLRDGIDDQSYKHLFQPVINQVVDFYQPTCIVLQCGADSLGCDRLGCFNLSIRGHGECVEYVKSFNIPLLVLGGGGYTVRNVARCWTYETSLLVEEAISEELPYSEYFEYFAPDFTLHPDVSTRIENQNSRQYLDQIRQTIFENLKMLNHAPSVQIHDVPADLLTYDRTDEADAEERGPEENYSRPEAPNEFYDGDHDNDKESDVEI

[3] = Competitive inhibition of N-terminal His-SUMO tagged zebra fish recombinant HDAC6 catalytic domain 2 transfected with pET28b(+) vector in Escherichia coli BL21 (DE3) RILP cells incubated for 10 mins followed by addition of FITC-M344 measured af ter 10 mins by fluorescence polarization assay; design: species or system Danio rerio
Histone deacetylase 8 = target: T3, Histone deacetylase 8 (Homo sapiens, UniProt Q9BY41); test: Inhibition of full length human recombinant HDAC8 expressed in Sf9 baculovirus system using FAM-labeled acetylated peptide as substrate by measuring fluorescence intensity by EMSA method
T3 sequence (Q9BY41 whole entry): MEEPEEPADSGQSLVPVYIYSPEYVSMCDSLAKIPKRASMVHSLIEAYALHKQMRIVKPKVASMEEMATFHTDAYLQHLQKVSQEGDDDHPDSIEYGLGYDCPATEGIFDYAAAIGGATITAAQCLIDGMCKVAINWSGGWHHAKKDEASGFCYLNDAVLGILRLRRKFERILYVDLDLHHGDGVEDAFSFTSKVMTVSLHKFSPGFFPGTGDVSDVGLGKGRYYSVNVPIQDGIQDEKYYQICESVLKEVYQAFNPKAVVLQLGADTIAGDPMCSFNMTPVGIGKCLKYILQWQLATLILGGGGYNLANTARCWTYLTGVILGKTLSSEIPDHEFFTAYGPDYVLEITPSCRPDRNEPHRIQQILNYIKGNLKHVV

[4] = AUCinfinity in CD-1 mouse at 20 mg/kg, ip; assay type: ADME, organism-based; design: time infinity, dose 20 mg/kg, route ip; conditions: in vivo
[5] = Cmax in CD-1 mouse at 20 mg/kg, ip; assay type: ADME, organism-based; design: dose 20 mg/kg, route ip; conditions: in vivo
[6] = AUClast in CD-1 mouse at 20 mg/kg, ip; assay type: ADME, organism-based; design: time 0 - last, dose 20 mg/kg, route ip; conditions: in vivo
[7] = Half life in CD-1 mouse at 20 mg/kg, ip; assay type: ADME, organism-based; conditions: in vivo
[8] = AUC/D in CD-1 mouse at 20 mg/kg, ip; assay type: ADME, organism-based; conditions: in vivo
[9] = Cytotoxicity against human HD-MB03 cells assessed as inhibition of cell growth incubated for 72 hrs measured by spectrophotometer analysis; assay type: functional, cell-based; conditions: HD-MB03, 72 h
MV4-11 [10] = test: Increase in acetylation of histone H3 in human MV4-11 cells at 0.1 uM after 6 hrs by Western blot analysis; assay type: functional, cell-based
HD-MB03 [11] = test: […] of self renewal of BTIC-enriched human HD-MB03 cells at 964 nM incubated for 72 hrs by sphere formation assay; assay type: functional, cell-based
MV4-11 [12] = test: Induction of apoptosis in human MV4-11 cells assessed as late apoptotic cells at 0.25 uM after 24 hrs by Annexin V/PI staining based flow cytometric analysis (Rvb=8.13%); assay type: functional
HD-MB03 [13] = test: Increase in acetylation of histone H3 in human HD-MB03 cells at 211 nM for 6 hrs by Western blotting anlaysis; assay type: functional, cell-based
[14] = Cytotoxicity against human fetal neuronal stem cells assessed as inhibition of cell growth incubated for 72 hrs measured by spectrophotometer analysis; assay type: toxicity, cell-based, NSC
MV4-11 [15] = test: Induction of apoptosis in human MV4-11 cells assessed as late apoptotic cells at 2 uM after 18 hrs by Annexin V/PI staining based flow cytometric analysis; assay type: functional
[16] = Lipophilicity, logP of the compound; assay type: physicochemical; conditions: octanol/water

SMILES	IC50 (MM1.S) [µM]	IC50 (Histone deacetylase 11) [µM]	IC50 (MV4-11 [1]) [µM]	IC50 at 72 h (in vitro) [µM]	IC50 [2] [µM]	IC50 (Histone deacetylase 3) [µM]	IC50 [3] [µM]	IC50 (Histone deacetylase 8) [µM]	other results
O=C(CCCCCCC(=O)Nc1ccccc1)NO [VORINOSTAT]	1.54	–	–	–	–	–	–	–	–
CC(C)N(Cc1ccc(C(=O)NO)cn1)S(=O)(=O)c1cc(F)c(F)c(F)c1F	1.6	> 1	1	> 50	0.121	> 1	1.13	> 1	–
CC(C)N(Cc1ccc(C(=O)NO)cc1)C(=O)c1c(F)c(F)c(F)c(F)c1F	12.3	–	–	> 50	–	–	–	–	–
CC(C)CN(Cc1ccc(C(=O)NO)cc1)S(=O)(=O)c1cc(F)c(F)c(F)c1F	0.69	> 1	0.52	> 50	0.0246	> 1	0.137	> 1	–
CCCCN(Cc1ccc(C(=O)NO)cc1)C(=O)Nc1ccccc1 [NEXTURASTAT A]	1.76	–	–	> 20	–	–	–	–	AUC(0-inf) [4]: 2.55 µg·h/mL; Cmax [5]: 0.75 µg/mL; AUC(0-t) [6]: 2.52 µg·h/mL; half-life [7]: 1.9 h; AUC/dose [8]: 126 ng·h/mL
O=C(CCCCCCNC(=O)c1cnc(N(c2ccccc2)c2ccccc2Cl)nc1)NO [CITARINOSTAT]	–	–	–	> 30	–	–	0.154	–	IC50 [9]: 5.8 µM; inhibition (MV4-11 [10]): Active; Activity (HD-MB03 [11]): Active; Activity (MV4-11 [12]): 8.31%; Activity (HD-MB03 [13]): Active; IC50 at 72 h [14]: 4.35 µM; Activity (MV4-11 [15]): 24%
O=C(NO)c1ccc2c(c1)CCN(S(=O)(=O)c1cc(F)c(F)c(F)c1F)C2	1.54	> 1	0.9	> 25	0.0504	> 1	–	> 1	–
CC(C)N(Cc1ccc(C(=O)NO)cc1)Cc1cc(F)c(F)c(F)c1F	11.3	> 1	7.43	> 50	0.0162	0.899	–	> 1	logP [16]: 4.07
